Reference: the NIST ThermoML archive (doi:10.1021/je100476h)

Assay: mn = molality of the nth substance listed, in mol/kg
Settings: 101 kPa, Liquid

NCC(=O)O [2-aminoacetic acid] + O
mass density [kg/m3]
Settings | m1 = 0.1429 | m1 = 0.2709 | m1 = 0.3812 | m1 = 0.4102 | m1 = 0.4801 | m1 = 0.5732
288.15 K | 1003.76 | 1007.85 | 1011.33 | 1012.23 | 1014.4 | 1017.27
298.15 K | 1001.56 | 1005.54 | 1008.93 | 1009.8 | 1011.92 | 1014.71
308.15 K | 998.477 | 1002.4 | 1005.73 | 1006.59 | 1008.66 | 1011.41
318.15 K | 994.636 | 998.503 | 1001.79 | 1002.63 | 1004.67 | 1007.37

NCCCCCC(=O)O [6-aminohexanoic acid] + O
mass density [kg/m3]
Settings | m1 = 0.05814 | m1 = 0.09073 | m1 = 0.1798 | m1 = 0.1945 | m1 = 0.267 | m1 = 0.3522
288.15 K | 1000.76 | 1001.66 | 1004.09 | 1004.48 | 1006.41 | 1008.64
298.15 K | 998.622 | 999.493 | 1001.84 | 1002.22 | 1004.08 | 1006.23
308.15 K | 995.592 | 996.454 | 998.775 | 999.147 | 1000.99 | 1003.12
318.15 K | 991.793 | 992.649 | 994.956 | 995.328 | 997.158 | 999.27

O [water] + CC(=O)[O-].[Na+]
Settings | mass density [kg/m3]
308.15 K, m2 = 0 | 994.063

NCCCC(=O)O [4-aminobutanoic acid] + O
mass density [kg/m3]
Settings | m1 = 0.04607 | m1 = 0.09549 | m1 = 0.1155 | m1 = 0.1652 | m1 = 0.1882 | m1 = 0.2277
288.15 K | 1000.54 | 1002.05 | 1002.65 | 1004.13 | 1004.83 | 1005.99
298.15 K | 998.428 | 999.894 | 1000.48 | 1001.93 | 1002.61 | 1003.73
308.15 K | 995.406 | 996.864 | 997.447 | 998.889 | 999.542 | 1000.66
318.15 K | 991.616 | 993.071 | 993.654 | 995.086 | 995.747 | 996.868

CC(=O)[O-].CC(=O)[O-].[Mg+2] [magnesium acetate] + O
mass density [kg/m3]
Settings | 288.15 K | 298.15 K | 308.15 K | 318.15 K
m1 = 0.1 | 1007.01 | 1004.9 | 1001.84 | 998.062
m1 = 0.25 | 1018.2 | 1016.05 | 1012.89 | 1009.15
m1 = 0.5 | 1035.44 | 1033.15 | 1030.05 | 1026.24
m1 = 1 | 1064.68 | 1061.74 | 1059.65 | 1055.19

CC(=O)[O-].[Na+] [sodium ethanoate] + O
mass density [kg/m3]
Settings | 288.15 K | 298.15 K | 308.15 K | 318.15 K
m1 = 0.1 | 1003.46 | 1001.31 | 998.243 | 994.384
m1 = 0.25 | 1009.6 | 1007.39 | 1004.27 | 1000.35
m1 = 0.5 | 1019.38 | 1017.07 | 1013.89 | 1009.85
m1 = 1 | 1037.22 | 1034.76 | 1031.54 | 1027.23
